These results are taken from patent US20110009381A1, “SOLUBILIZED THIAZOLOPYRIDINES” (Sirtis Pharmaceuticals, Inc., priority 2007, published 2011).

This test addresses T1, SIRT1 (Homo sapiens, UniProt Q96EB6).
T1 sequence (Q96EB6 1-747): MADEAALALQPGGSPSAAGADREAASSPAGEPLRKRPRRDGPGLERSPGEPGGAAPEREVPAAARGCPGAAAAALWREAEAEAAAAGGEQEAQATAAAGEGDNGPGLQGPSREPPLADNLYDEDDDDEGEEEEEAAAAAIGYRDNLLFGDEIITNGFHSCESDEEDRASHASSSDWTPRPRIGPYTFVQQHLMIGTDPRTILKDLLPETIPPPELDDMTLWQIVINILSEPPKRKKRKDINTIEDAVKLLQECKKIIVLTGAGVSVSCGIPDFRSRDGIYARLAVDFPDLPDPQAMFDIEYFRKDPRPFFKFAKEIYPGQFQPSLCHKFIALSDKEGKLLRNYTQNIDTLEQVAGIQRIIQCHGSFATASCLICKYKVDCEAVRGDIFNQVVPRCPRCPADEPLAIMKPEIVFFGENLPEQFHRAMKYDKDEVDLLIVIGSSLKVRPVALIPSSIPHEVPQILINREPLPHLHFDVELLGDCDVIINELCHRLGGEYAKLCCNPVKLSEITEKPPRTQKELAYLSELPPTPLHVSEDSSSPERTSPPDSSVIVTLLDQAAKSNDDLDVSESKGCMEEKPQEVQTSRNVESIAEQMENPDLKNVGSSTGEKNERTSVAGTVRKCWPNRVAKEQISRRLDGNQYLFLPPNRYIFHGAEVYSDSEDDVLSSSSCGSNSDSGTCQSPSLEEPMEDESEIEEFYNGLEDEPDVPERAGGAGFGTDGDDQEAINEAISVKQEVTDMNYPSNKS
The test can be described thus: Mass spectrometry based assay to identify modulators of SIRT1 activity (deacetylation of p53-based acetylated peptide substrate). It is filed as biochemical. The following applies: 10 nM SIRT1, 0.5 μM peptide substrate, 120 μM βNAD+, 25 minutes at 25° C.; for EC1.5: SIRT1 activation. Summed up: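 Activation measured on His-tagged SIRT1 (10 nM, E. coli-expressed) deacetylating a 0.5 μM p53-derived acetyl-peptide with 120 μM βNAD^+ for 25 min at 25 °C, pH 8 Tris-acetate. After formic acid stop, mass spectrometry quantified acetylated versus deacetylated peptide, referenced to DMSO and nicotinamide controls. Reported as EC1.5 and maximum fold activation.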

For the compound `O=C(O)CCNc1cc(C(=O)Nc2ccccc2-c2nc3cccnc3s2)nc(-c2ccccc2)n1` [Compound 44], the “FOLD ACT. (percent maximum fold activation)” value is recorded as “A (Fold activation≧300%)”; the EC1.5 entry is “A (EC1.5≧250 nM and ≦1 uM)”.

Regarding `NCCCCNc1cc(C(=O)Nc2ccccc2-c2nc3cccnc3s2)nc(-c2ccccc2)n1` [Compound 87], the “FOLD ACT. (percent maximum fold activation)” value is given as “A (Fold activation≧300%)”; the EC1.5 result is “A (EC1.5≧250 nM and ≦1 uM)”.

Regarding `O=C(Nc1ccccc1-c1nc2cccnc2s1)c1cc(OC[C@H](O)CO)cc(-c2ccccc2)n1` [Compound 126], the “FOLD ACT. (percent maximum fold activation)” value is “A (Fold activation≧300%)” and the EC1.5 result was “A′ (EC1.5<250 nM)”.

Consider `COCCN1CCN(c2cc(C(=O)Nc3ccccc3-c3nc4ccncc4s3)nc(-c3ccccc3)n2)CC1` [Compound 25], for which the “FOLD ACT. (percent maximum fold activation)” value is given as “A (Fold activation≧300%)” and the EC1.5 entry is given as “A′ (EC1.5<250 nM)”.

For the compound `O=C(Nc1ccccc1-c1nc2ccncc2s1)c1cc(NCCN2CCCC2)nc(-c2ccccc2)n1` [Compound 56], the “FOLD ACT. (percent maximum fold activation)” value is “A (Fold activation≧300%)” and the EC1.5 entry is listed as “A′ (EC1.5<250 nM)”.

With `O=C(Nc1ccccc1-c1nc2ccncc2s1)c1cc(NCc2cccnc2)nc(-c2ccccc2)n1` [Compound 31], the “FOLD ACT. (percent maximum fold activation)” value was “B (Fold Activation≧150% and <300%)”; the EC1.5 entry is “A (EC1.5≧250 nM and ≦1 uM)”.

As for `O=C(Nc1ccccc1-c1nc2cccnc2s1)c1cc(N[C@@H]2CCCNC2)nc(-c2ccccc2)n1` [Compound 95], the “FOLD ACT. (percent maximum fold activation)” value is “A (Fold activation≧300%)” and the EC1.5 entry is on record as “A′ (EC1.5<250 nM)”.

`O=C(Nc1ccccc1-c1nc2cccnc2s1)c1cc(OC[C@H](O)CO)nc(-c2ccccc2)n1` [Compound 107]: the “FOLD ACT. (percent maximum fold activation)” value is “B (Fold Activation≧150% and <300%)”; the EC1.5 entry is “A (EC1.5≧250 nM and ≦1 uM)”.

Consider `Cl.O=C(Nc1ccccc1-c1nc2cccnc2s1)c1cc(NCCN2CCOCC2)nc(-c2ccccc2)n1` [Compound 61], for which the “FOLD ACT. (percent maximum fold activation)” value is given as “A (Fold activation≧300%)” and the EC1.5 result is on record as “A′ (EC1.5<250 nM)”.

In the case of `CN(C)CCOc1cc(C(=O)Nc2ccccc2-c2nc3cccnc3s2)nc(-c2ccccc2)n1` [Compound 94], the “FOLD ACT. (percent maximum fold activation)” value was “A (Fold activation≧300%)”; the EC1.5 entry is “A (EC1.5≧250 nM and ≦1 uM)”.

For `CCS(=O)(=O)CCNc1cc(C(=O)Nc2ccccc2-c2nc3cccnc3s2)nc(-c2ccccc2)n1` [Compound 74], the “FOLD ACT. (percent maximum fold activation)” value is recorded as “A (Fold activation≧300%)” and the EC1.5 entry was “A′ (EC1.5<250 nM)”.

For the compound `CCOc1cc(C(=O)Nc2ccccc2-c2nc3cccnc3s2)nc(-c2ccccc2)n1` [Compound 18], the “FOLD ACT. (percent maximum fold activation)” value is reported as “C (Fold Activation<150%)” and the EC1.5 result is reported as “C (EC1.5>10 uM)”.

As to `O=C(Nc1ccccc1-c1nc2cccnc2s1)c1cc(NC2CCN(Cc3ccccc3)CC2)nc(-c2ccccc2)n1` [Compound 113], the “FOLD ACT. (percent maximum fold activation)” value was “B (Fold Activation≧150% and <300%)”; the EC1.5 entry is “A (EC1.5≧250 nM and ≦1 uM)”.

On to `COCCN(CCOC)c1cc(C(=O)Nc2ccccc2-c2nc3cccnc3s2)nc(-c2cccc(C)c2)n1` [Compound 143], for which the “FOLD ACT. (percent maximum fold activation)” value was “A (Fold activation≧300%)” and the EC1.5 result is listed as “A′ (EC1.5<250 nM)”.

For `O=C(Nc1ccccc1-c1nc2cccnc2s1)c1cc(NCCCn2ccnc2)cc(-c2ccccc2)n1` [Compound 141], the “FOLD ACT. (percent maximum fold activation)” value is “A (Fold activation≧300%)” and the EC1.5 entry was “A′ (EC1.5<250 nM)”.

On to `Cc1cccc(-c2nc(NCCN(C)C)cc(C(=O)Nc3ccccc3-c3nc4cccnc4s3)n2)c1` [Compound 112], for which the “FOLD ACT. (percent maximum fold activation)” value is recorded as “A (Fold activation≧300%)” and the EC1.5 result is on record as “A′ (EC1.5<250 nM)”.

As to `O=C(Nc1ccccc1-c1nc2cccnc2s1)c1cc(OCCN2CCS(=O)(=O)CC2)cc(-c2ccccc2)n1` [Compound 7], the “FOLD ACT. (percent maximum fold activation)” value is given as “A (Fold activation≧300%)” and the EC1.5 entry is listed as “A′ (EC1.5<250 nM)”.

`O=C(Nc1ccccc1-c1nc2cccnc2s1)c1cc(N2C[C@H]3C[C@@H]2CN3)nc(-c2ccccc2)n1` [Compound 71]: the “FOLD ACT. (percent maximum fold activation)” value is given as “A (Fold activation≧300%)” and the EC1.5 entry is reported as “A′ (EC1.5<250 nM)”.

In the case of `CCN1CCC(Nc2cc(C(=O)Nc3ccccc3-c3nc4cccnc4s3)nc(-c3ccccc3)n2)CC1` [Compound 100], the “FOLD ACT. (percent maximum fold activation)” value was “A (Fold activation≧300%)” and the EC1.5 entry was “A′ (EC1.5<250 nM)”.

As to `O=C(Nc1ccccc1-c1nc2cccnc2s1)c1cc(OCCCCO)nc(-c2ccccc2)n1` [Compound 103], the “FOLD ACT. (percent maximum fold activation)” value was “B (Fold Activation≧150% and <300%)”; the EC1.5 result is “C (EC1.5>10 uM)”.

Regarding `O=C(Nc1ccccc1-c1nc2cccnc2s1)c1cc(OCCN2CCOCC2)cc(-c2ccccc2)n1` [Compound 13], the “FOLD ACT. (percent maximum fold activation)” value was “A (Fold activation≧300%)”; the EC1.5 entry was “A (EC1.5≧250 nM and ≦1 uM)”.

For the compound `CN(C)CCNCCOc1cc(C(=O)Nc2ccccc2-c2nc3cccnc3s2)nc(-c2ccccc2)c1` [Compound 33], the “FOLD ACT. (percent maximum fold activation)” value is given as “A (Fold activation≧300%)” and the EC1.5 entry is listed as “A′ (EC1.5<250 nM)”.

Take `COCCN(C)c1cc(C(=O)Nc2ccccc2-c2nc3ccncc3s2)nc(-c2ccccc2)n1` [Compound 29]: the “FOLD ACT. (percent maximum fold activation)” value is “A (Fold activation≧300%)” and the EC1.5 result is recorded as “A′ (EC1.5<250 nM)”.

For the compound `Cc1nc(NCCN(C)C)cc(C(=O)Nc2ccccc2-c2nc3cccnc3s2)n1` [Compound 28], the “FOLD ACT. (percent maximum fold activation)” value was “A (Fold activation≧300%)”; the EC1.5 entry was “B (EC1.5>1 and ≦10 uM)”.

In the case of `Cc1cccc(-c2nc(C(=O)Nc3ccccc3-c3nc4cccnc4s3)cc(N3CCNCC3)n2)c1` [Compound 139], the “FOLD ACT. (percent maximum fold activation)” value is recorded as “A (Fold activation≧300%)” and the EC1.5 entry is given as “A′ (EC1.5<250 nM)”.

As to `CC1(C)OC[C@H](COc2cc(C(=O)Nc3ccccc3-c3nc4cccnc4s3)nc(-c3ccccc3)n2)O1` [Compound 97], the “FOLD ACT. (percent maximum fold activation)” value is “B (Fold Activation≧150% and <300%)”; the EC1.5 entry was “C (EC1.5>10 uM)”.

Consider `CC(C)CN1CCC(Nc2cc(C(=O)Nc3ccccc3-c3nc4cccnc4s3)nc(-c3ccccc3)n2)CC1` [Compound 140], for which the “FOLD ACT. (percent maximum fold activation)” value is listed as “A (Fold activation≧300%)” and the EC1.5 result was “A′ (EC1.5<250 nM)”.

With `CNCCN(C)c1cc(C(=O)Nc2ccccc2-c2nc3cccnc3s2)nc(-c2ccccc2)n1` [Compound 147], the “FOLD ACT. (percent maximum fold activation)” value was “A (Fold activation≧300%)” and the EC1.5 entry is listed as “A′ (EC1.5<250 nM)”.

Take `O=C(Nc1ccccc1-c1nc2cccnc2s1)c1cc(N2CCNCC2)cc(-c2ccccc2)n1` [Compound 119]: the “FOLD ACT. (percent maximum fold activation)” value is recorded as “A (Fold activation≧300%)” and the EC1.5 entry is given as “A′ (EC1.5<250 nM)”.

For the compound `CN1CCC(Nc2cc(C(=O)Nc3ccccc3-c3nc4cccnc4s3)nc(-c3ccccc3)n2)CC1` [Compound 99], the “FOLD ACT. (percent maximum fold activation)” value is recorded as “A (Fold activation≧300%)” and the EC1.5 entry is on record as “A′ (EC1.5<250 nM)”.

For `O=C(Nc1ccccc1-c1nc2cccnc2s1)c1cc(N2CCS(=O)(=O)CC2)nc(-c2ccccc2)n1` [Compound 16], the “FOLD ACT. (percent maximum fold activation)” value is “B (Fold Activation≧150% and <300%)”; the EC1.5 result is “A (EC1.5≧250 nM and ≦1 uM)”.

For the compound `CCSCCNc1cc(C(=O)Nc2ccccc2-c2nc3cccnc3s2)nc(-c2ccccc2)n1` [Compound 73], the “FOLD ACT. (percent maximum fold activation)” value is “B (Fold Activation≧150% and <300%)”; the EC1.5 entry is “B (EC1.5>1 and ≦10 uM)”.

For the compound `CC(C)NCCNc1cc(C(=O)Nc2ccccc2-c2nc3cccnc3s2)nc(-c2ccccc2)n1` [Compound 52], the “FOLD ACT. (percent maximum fold activation)” value is given as “A (Fold activation≧300%)”; the EC1.5 result is “A (EC1.5≧250 nM and ≦1 uM)”.

As to `CCN1CCN(c2cc(C(=O)Nc3ccccc3-c3nc4cccnc4s3)nc(-c3ccccc3)n2)CC1=O` [Compound 150], the “FOLD ACT. (percent maximum fold activation)” value is on record as “A (Fold activation≧300%)”; the EC1.5 result is “A (EC1.5≧250 nM and ≦1 uM)”.

Take `O=C(Nc1ccccc1-c1nc2cccnc2s1)c1cc(OC[C@@H](O)CO)nc(-c2ccccc2)n1` [Compound 108]: the “FOLD ACT. (percent maximum fold activation)” value was “B (Fold Activation≧150% and <300%)”; the EC1.5 entry is on record as “A′ (EC1.5<250 nM)”.

Consider `O=C(Nc1ccccc1-c1nc2cccnc2s1)c1cc(N2CCCNCC2)nc(-c2ccccc2)n1` [Compound 37], for which the “FOLD ACT. (percent maximum fold activation)” value is listed as “A (Fold activation≧300%)” and the EC1.5 result is recorded as “A′ (EC1.5<250 nM)”.
